# Source: patent US7728037B2, “Alpha-ketoglutarates of active ingredients and compositions containing same” (Sigma-Tau Industrie Farmaceutiche Riunite S.p.A., priority 2001, dated 2010)
# Test system: rabbit heart papillary muscle subjected to hypoxia
# Assay: Metabolic tests: ATP concentrations in rabbit heart papillary muscle subjected to hypoxia after oral treatment
# Type: in vivo
# Settings: 1 g/kg by mouth or equimolecular doses, three consecutive days; tissue held anoxic for 90 minutes; untreated controls 1.70±0.68 to 0.46±0.071
# Description: After three consecutive days of treatment, sections of papillary muscle were isolated from the rabbit hearts and were perfused in a thermostatized bath with a saturated solution of 100% O2.
row,Molecule,ATP concentrations in papillary muscle after hypoxia [µmol/g tissue]
1,C[N+](C)(C)C[C@H](O)CC(=O)[O-] [L-carnitine],0.59 ± 0.31
2,L-carnitine alpha-ketoglutarate,1.48 ± 0.72
